Experimental data taken from US20240116946A1 (Gilead Sciences, Inc., priority 2022, published 2024).
pEC50, pIC50: −log10 of the molar value. Read-outs that look alike come from different tables or passages of the source.

How the values were obtained:
[1] = target: recombinant SARS-CoV-2 Main protease (Mpro) (Severe acute respiratory syndrome coronavirus 2 (2019-nCoV) (SARS-CoV-2), UniProt P0DTD1); experiment: Cov Mpro Biochemical IC50 Assay; conditions: read-out: MPro IC50
SARS-CoV-2-NLuc = experiment: microbe, parasite or virus in culture; type: cell-based, SARS Coronavirus 2
[2] = recombinant SARS-CoV-2 Mpro, fluorogenic peptide substrate
[3] = Severe acute respiratory syndrome coronavirus, 48 h, read-out: MPro EC50
[4] = Severe acute respiratory syndrome coronavirus, 48 h; read-out: MPro EC50
[5] = recombinant SARS-CoV-2 Mpro 7.5 nM, fluorogenic peptide substrate 40 μM

Q: What does the source list for `Cc1c(C2CC2)cncc1-n1c(=O)[nH]c2cc(-c3ccccc3Cl)sc2c1=O` [Example 377]?
A: pIC50 [1, 2]: < 4.30; pEC50 (SARS-CoV-2-NLuc; [3]): 5.21

Q: `COc1cncc(-n2c(=O)[nH]c3cc(-c4ccccc4Cl)sc3c2=O)c1` [Example 378] was tested. Which pIC50 [1, 2] did it give?
A: The pIC50 was 6.52.

Q: And the pEC50 (SARS-CoV-2-NLuc; [4])?
A: Its pEC50 is 6.44.

Q: `O=c1[nH]c2cc(-c3ccccc3Cl)sc2c(=O)n1-c1cncc(C2CCC2)c1` [Example 379] was tested. Which pIC50 [1, 2] did it give?
A: The pIC50 was 6.36.

Q: What about the pEC50 (SARS-CoV-2-NLuc; [4]) of the same molecule?
A: The pEC50 was 6.73.

Q: With `CN(C)c1cncc(-n2c(=O)[nH]c3cc(-c4ccccc4Cl)sc3c2=O)c1` [Example 380] as the molecule, how does the pIC50 [1, 2] read?
A: The pIC50 was 5.23.

Q: And the pEC50 (SARS-CoV-2-NLuc; [3])?
A: Its pEC50 is 6.11.

Q: Which results are given for `O=c1[nH]c2cc(-c3ccccc3Cl)sc2c(=O)n1-c1cncc(OCC(F)(F)F)c1` [Example 381]?
A: pIC50 [1, 2]: 5.30; pEC50 (SARS-CoV-2-NLuc; [3]): 6.84

Q: `CC(C)Oc1cncc(-n2c(=O)[nH]c3cc(-c4ccccc4Cl)sc3c2=O)c1` [Example 382] was tested. Which pIC50 [1, 2] did it give?
A: Its pIC50 is 5.34.

Q: And the pEC50 (SARS-CoV-2-NLuc; [3])?
A: The pEC50 was 6.68.

Q: `CNC(=O)[C@H]1C[C@@H]1c1cncc(-n2c(=O)[nH]c3cc(-c4ccccc4Cl)sc3c2=O)c1` [Example 383] was tested. Which pIC50 [1, 2] did it give?
A: The pIC50 was 8.28.

Q: And the pEC50 (SARS-CoV-2-NLuc; [3])?
A: The pEC50 was 6.54.

Q: Which results are given for `O=c1[nH]c2cc(-c3ccccc3Cl)sc2c(=O)n1-c1cncc2ccc(N3CCOCC3)cc12` [Example 385, 6-(2-chlorophenyl)-3-(6-morpholinoisoquinolin-4-yl)thieno[3,2-d]pyrimidine-2,4(1H,3H)-dione]?
A: pIC50 [1, 2]: 8.26; pEC50 (SARS-CoV-2-NLuc; [3]): 7.85

Q: With `CC(C)(O)[C@H](F)CNc1ccc2cncc(-n3c(=O)[nH]c4cc(-c5ccccc5Cl)sc4c3=O)c2c1` [Example 386] as the molecule, how does the pIC50 [1, 2] read?
A: Its pIC50 is 8.40.

Q: What about the pEC50 (SARS-CoV-2-NLuc; [3]) of the same molecule?
A: The pEC50 was 7.25.

Q: `CC(=O)N1CCN(c2ccc3cncc(-n4c(=O)[nH]c5cc(-c6ccccc6Cl)sc5c4=O)c3c2)CC1` [Example 387] was tested. Which pIC50 [1, 2] did it give?
A: Its pIC50 is > 8.60.

Q: And the pEC50 (SARS-CoV-2-NLuc; [3])?
A: Its pEC50 is 7.52.

Q: What does the source list for `CC(=O)NC1CCN(c2ccc3cncc(-n4c(=O)[nH]c5cc(-c6ccccc6Cl)sc5c4=O)c3c2)CC1` [Example 388]?
A: pIC50 [1, 2]: 7.73; pEC50 (SARS-CoV-2-NLuc; [3]): 6.67

Q: `CC(C)(O)CNc1ccc2cncc(-n3c(=O)[nH]c4cc(-c5ccccc5Cl)sc4c3=O)c2c1` [Example 389] was tested. Which pIC50 [1, 2] did it give?
A: Its pIC50 is 7.57.

Q: What about the pEC50 (SARS-CoV-2-NLuc; [3]) of the same molecule?
A: The pEC50 was 6.88.

Q: What does the source list for `CC1(O)CN(c2ccc3cncc(-n4c(=O)[nH]c5cc(-c6ccccc6Cl)sc5c4=O)c3c2)C1` [Example 390]?
A: pIC50 [1, 2]: 7.94; pEC50 (SARS-CoV-2-NLuc; [3]): 7.72

Q: Which results are given for `CC1(N2CCN(c3ccc4cncc(-n5c(=O)[nH]c6cc(-c7ccccc7Cl)sc6c5=O)c4c3)CC2)COC1` [Example 391]?
A: pIC50 [1, 2]: 8.20; pEC50 (SARS-CoV-2-NLuc; [3]): 7.99

Q: How did the pIC50 [1, 2] turn out when `O=c1[nH]c2cc(-c3ccccc3Cl)sc2c(=O)n1-c1cncc2ccc(N3CCN(C4COC4)CC3)cc12` [Example 392] was run?
A: Its pIC50 is > 8.60.

Q: What about the pEC50 (SARS-CoV-2-NLuc; [3]) of the same molecule?
A: Its pEC50 is 8.17.

Q: What does the source list for `O=c1[nH]c2cc(-c3ccccc3Cl)sc2c(=O)n1-c1cncc2ccc(N3C[C@@H]4C[C@H]3CO4)cc12` [Example 393]?
A: pIC50 [1, 5]: 8.05; pEC50 (SARS-CoV-2-NLuc; [3]): 7.92

Q: How did the pIC50 [1, 5] turn out when `O=c1[nH]c2cc(-c3ccccc3Cl)sc2c(=O)n1-c1cncc2ccc(N3C[C@H]4C[C@@H]3CO4)cc12` [Example 394] was run?
A: The pIC50 was 8.29.

Q: And the pEC50 (SARS-CoV-2-NLuc; [3])?
A: Its pEC50 is 8.24.

Q: What does the source list for `O=c1[nH]c2cc(-c3ccccc3Cl)sc2c(=O)n1-c1cncc2ccc(N3CC4(C3)CS(=O)(=O)C4)cc12` [Example 395]?
A: pIC50 [1, 5]: 8.14; pEC50 (SARS-CoV-2-NLuc; [3]): 7.09

Q: How did the pIC50 [1, 5] turn out when `Cc1nnc2n1CCN(c1ccc3cncc(-n4c(=O)[nH]c5cc(-c6ccccc6Cl)sc5c4=O)c3c1)C2` [Example 396] was run?
A: Its pIC50 is 7.83.

Q: What about the pEC50 (SARS-CoV-2-NLuc; [3]) of the same molecule?
A: The pEC50 was 5.52.

Q: Which results are given for `O=c1[nH]c2cc(-c3ccccc3Cl)sc2c(=O)n1-c1cncc2ccc(N3CC4(COC4)C3)cc12` [Example 397]?
A: pIC50 [1, 5]: 8.45; pEC50 (SARS-CoV-2-NLuc; [3]): 7.82

Q: `CO[C@H]1CCN(c2ccc3cncc(-n4c(=O)[nH]c5cc(-c6ccccc6Cl)sc5c4=O)c3c2)C1` [Example 398] was tested. Which pIC50 [1, 5] did it give?
A: The pIC50 was 8.47.

Q: And the pEC50 (SARS-CoV-2-NLuc; [3])?
A: Its pEC50 is 7.73.

Q: With `CN1CCN(c2ccc3cncc(-n4c(=O)[nH]c5cc(-c6ccccc6Cl)sc5c4=O)c3c2)CC1` [Example 400] as the molecule, how does the pIC50 [1, 5] read?
A: Its pIC50 is 8.22.

Q: And the pEC50 (SARS-CoV-2-NLuc; [3])?
A: Its pEC50 is 8.22.

Q: `COC1CCN(c2ccc3cncc(-n4c(=O)[nH]c5cc(-c6ccccc6Cl)sc5c4=O)c3c2)CC1` [Example 401] was tested. Which pIC50 [1, 5] did it give?
A: The pIC50 was 8.42.

Q: What about the pEC50 (SARS-CoV-2-NLuc; [3]) of the same molecule?
A: Its pEC50 is 7.98.

Q: How did the pIC50 [1, 5] turn out when `O=c1[nH]c2cc(-c3ccccc3Cl)sc2c(=O)n1-c1cncc2ccc(N3CC4(CCCO4)C3)cc12` [Example 402] was run?
A: Its pIC50 is 8.22.

Q: And the pEC50 (SARS-CoV-2-NLuc; [3])?
A: Its pEC50 is 7.92.

Q: With `COCCNc1ccc2cncc(-n3c(=O)[nH]c4cc(-c5ccccc5Cl)sc4c3=O)c2c1` [Example 403] as the molecule, how does the pIC50 [1, 5] read?
A: The pIC50 was 8.16.

Q: And the pEC50 (SARS-CoV-2-NLuc; [3])?
A: The pEC50 was 7.96.

Q: Which results are given for `CN(CCO)c1ccc2cncc(-n3c(=O)[nH]c4cc(-c5ccccc5Cl)sc4c3=O)c2c1` [Example 404]?
A: pIC50 [1, 5]: 8.19; pEC50 (SARS-CoV-2-NLuc; [3]): 7.43

Q: What does the source list for `O=C1C[C@@H](Nc2ccc3cncc(-n4c(=O)[nH]c5cc(-c6ccccc6Cl)sc5c4=O)c3c2)CN1` [Example 405]?
A: pIC50 [1, 5]: 7.92; pEC50 (SARS-CoV-2-NLuc; [3]): 5.53

Q: What does the source list for `CS(=O)(=O)N1CC(Nc2ccc3cncc(-n4c(=O)[nH]c5cc(-c6ccccc6Cl)sc5c4=O)c3c2)C1` [Example 406]?
A: pIC50 [1, 5]: 7.90; pEC50 (SARS-CoV-2-NLuc; [3]): 6.33

Q: How did the pIC50 [1, 5] turn out when `COc1ccc(Cl)c(-c2ccc3c(=O)n(-c4cncc5ccc(N6CCC(F)(F)C6)cc45)c(=O)[nH]c3c2)c1` [Example 407] was run?
A: The pIC50 was 7.10.

Q: What about the pEC50 (SARS-CoV-2-NLuc; [3]) of the same molecule?
A: Its pEC50 is 6.73.
